From ChEMBL document CHEMBL4052642, “4-Methyl-6,7-dihydro-4H-triazolo[4,5-c]pyridine-Based P2X7 Receptor Antagonists: Optimization of Pharmacokinetic Properties Leading to the Identification of a Clinical Candidate” (J Med Chem, 2017)
Calls of active or inactive are those of the source. The rule behind the calls is not given here.

Assays:
[1] = test system: Liver; test: Metabolic stability in mouse liver microsomes at 1 uM after 5 to 60 mins by LC-MS/MS analysis; assay type: ADME, microsome
[2] = test system: Liver; test: Metabolic stability in rat liver microsomes at 1 uM after 5 to 60 mins by LC-MS/MS analysis; assay type: ADME, microsome
[3] = target: P2X purinoceptor 1 (Homo sapiens) (UniProt P51575); test: Antagonist activity at P2X1 (unknown origin) assessed as inhibition of BzATP-induced calcium flux up to 10 uM preincubated for 30 mins followed by BzATP addition measured over 180 secs by FLIPR assay
[4] = test system: Canis familiaris; test: Oral bioavailability in beagle dog at 2.5 mg/kg by LC-MS/MS analysis; assay type: ADME, organism-based, Canis lupus familiaris; conditions: in vivo
[5] = target: P2X purinoceptor 4 (Homo sapiens) (UniProt Q99571); test: Antagonist activity at P2X4 (unknown origin) assessed as inhibition of BzATP-induced calcium flux up to 10 uM preincubated for 30 mins followed by BzATP addition measured over 180 secs by FLIPR assay
[6] = test system: Canis familiaris; test: Toxicity in dog at 30 to 300 mg/kg administered via oral gavage on day 1 and day 5 by hematoxylin-eosin staining-based necroscopic method; assay type: organism-based, Canis lupus familiaris; conditions: in vivo
[7] = test system: Rattus norvegicus; test: Ex vivo receptor occupancy at P2X7 in po dosed Sprague-Dawley rat brain assessed as plasma concentration required to achieve EC50 after 60 mins by autoradiography; assay type: functional, organism-based
[8] = target: P2X purinoceptor 2 (Homo sapiens) (UniProt Q9UBL9); test: Antagonist activity at P2X2 (unknown origin) assessed as inhibition of BzATP-induced calcium flux up to 10 uM preincubated for 30 mins followed by BzATP addition measured over 180 secs by FLIPR assay
[9] = test system: Canis familiaris; test: Toxicity in dog assessed as change in serum chemistry at 30 to 300 mg/kg administered via oral gavage on day 1 and day 5; assay type: organism-based, Canis lupus familiaris; conditions: in vivo
[10] = test system: Hepatocyte; test: Metabolic stability in hepatocytes (unknown origin); assay type: ADME, cell-based
[11] = Volume of distribution at steady state in cynomolgus monkey at 1 mg/kg, iv or 5 mg/kg, po by LC-MS/MS analysis; assay type: ADME, organism-based, Macaca fascicularis; conditions: in vivo, read-out: Vdss
[12] = test system: Rattus norvegicus; test: Toxicity in rat at 62.5 to 250 mg/kg administered via oral gavage on day 1 and day 4; assay type: organism-based; conditions: in vivo
[13] = Drug uptake in dog brain at 3 mg/kg, po after 96 hrs; assay type: ADME, organism-based, Canis lupus familiaris; conditions: read-out: Drug uptake
[14] = Half life in cynomolgus monkey at 1 mg/kg, iv by LC-MS/MS analysis; assay type: ADME, organism-based, Macaca fascicularis; conditions: in vivo
[15] = test system: Liver; test: Metabolic stability in dog liver microsomes at 1 uM after 5 to 60 mins by LC-MS/MS analysis; assay type: ADME, Canis lupus familiaris, microsome
[16] = Clearance in beagle dog at 0.5 mg/kg, iv or 2.5 mg/kg, po by LC-MS/MS analysis; assay type: ADME, organism-based, Canis lupus familiaris; conditions: in vivo
[17] = Protein binding in rat plasma at 1 uM after 6 hrs by equilibrium dialysis method; assay type: ADME, cell-free; conditions: read-out: PPB (converted)
[18] = Metabolic stability in cynomolgus monkey liver microsomes at 1 uM after 5 to 60 mins by LC-MS/MS analysis; assay type: ADME, Macaca fascicularis, microsome

Chain of P2X purinoceptor 1 (Homo sapiens) (P51575 whole entry): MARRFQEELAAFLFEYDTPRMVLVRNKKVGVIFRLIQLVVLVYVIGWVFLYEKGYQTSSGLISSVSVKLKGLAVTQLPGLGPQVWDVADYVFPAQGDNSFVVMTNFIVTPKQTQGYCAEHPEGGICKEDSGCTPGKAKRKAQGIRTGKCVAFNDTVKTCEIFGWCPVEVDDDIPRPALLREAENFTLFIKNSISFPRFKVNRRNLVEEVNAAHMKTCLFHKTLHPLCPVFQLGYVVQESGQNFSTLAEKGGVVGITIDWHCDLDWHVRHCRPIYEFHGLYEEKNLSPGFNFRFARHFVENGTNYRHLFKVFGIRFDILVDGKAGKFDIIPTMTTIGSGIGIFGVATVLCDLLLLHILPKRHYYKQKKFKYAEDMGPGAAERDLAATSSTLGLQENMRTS
Chain of P2X purinoceptor 4 (Homo sapiens) (Q99571 whole entry): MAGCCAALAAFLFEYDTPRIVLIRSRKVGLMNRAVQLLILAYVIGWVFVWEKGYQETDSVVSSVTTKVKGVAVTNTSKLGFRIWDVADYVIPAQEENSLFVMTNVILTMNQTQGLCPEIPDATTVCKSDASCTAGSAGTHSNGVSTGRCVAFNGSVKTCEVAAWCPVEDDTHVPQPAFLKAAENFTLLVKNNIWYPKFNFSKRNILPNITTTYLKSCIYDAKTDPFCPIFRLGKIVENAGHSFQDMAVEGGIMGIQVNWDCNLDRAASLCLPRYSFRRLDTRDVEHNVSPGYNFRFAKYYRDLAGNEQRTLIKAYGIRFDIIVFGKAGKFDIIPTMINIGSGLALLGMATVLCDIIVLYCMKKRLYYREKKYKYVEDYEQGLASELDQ
Chain of P2X purinoceptor 2 (Homo sapiens) (Q9UBL9 whole entry): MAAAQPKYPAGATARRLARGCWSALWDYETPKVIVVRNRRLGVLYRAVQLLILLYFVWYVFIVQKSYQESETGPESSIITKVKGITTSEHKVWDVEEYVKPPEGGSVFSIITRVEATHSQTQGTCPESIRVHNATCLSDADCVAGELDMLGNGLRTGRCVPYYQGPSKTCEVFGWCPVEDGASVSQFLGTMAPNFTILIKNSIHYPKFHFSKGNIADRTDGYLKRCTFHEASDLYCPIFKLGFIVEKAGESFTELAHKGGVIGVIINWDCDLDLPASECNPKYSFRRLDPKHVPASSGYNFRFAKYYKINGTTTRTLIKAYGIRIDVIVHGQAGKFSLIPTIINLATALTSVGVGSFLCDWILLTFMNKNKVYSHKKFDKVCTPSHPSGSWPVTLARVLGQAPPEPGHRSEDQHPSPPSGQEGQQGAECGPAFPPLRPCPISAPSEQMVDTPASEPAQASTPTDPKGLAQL

## C[C@@H]1c2nnn(-c3ncc(F)cn3)c2CCN1C(=O)c1cccc(C(F)(F)F)c1Cl [JNJ-54175446]
[1]
  Stability: Stable
[2]
  Stability: Stable
[3]
  inhibition: inactive
[4]
  F: 164%
[5]
  inhibition: inactive
[6]
  Activity: Non-Toxic
[7]
  Cp: 105 ng/mL
[8]
  inhibition: inactive
[9]
  Activity: Non-Toxic
[10]
  Stability: Stable
[11]
  Vd: 2.1 L/kg
[12]
  Activity: Non-Toxic
[13]
  concentration at 96 h: > 1000 nM
[14]
  half-life: 6.9 h
[15]
  Stability: Stable
[16]
  clearance: 0.9 mL/min/kg
[17]
  fraction unbound at 6 h, 1 µM: 0.122
[18]
  Stability: Stable
